Reference: US20230265524A1, “IMMUNOGENIC RETROELEMENTS AND THEIR USE IN CANCER THERAPY” (UNIVERSITY HEALTH NETWORK, priority 2020, published 2023)

Experiments:
[1] = test system: patient-derived CRC cells; assay: in vitro sphere initiation assay followed by limiting dilution analysis (LDA); type: cell-based, human; conditions: ADAR1-depleted CRC cells treated with 5-AZA-CdR
Method: B, The normalized percentage of reduction in sphere forming ability was calculated in each condition compared to Mock-treated.
(§1) One of the major challenges facing conventional chemotherapy is the persistence of cancer initiating cells (CICs), often resulting in relapse^38-40. We and others have previously shown that 5-AZA-CdR treatment can target colorectal cancer CICs by inducing the viral mimicry response^1,41. We therefore tested whether ADAR1^KD by itself or in combination with 5-AZA-CdR can decrease tumour initiation. To this end, we first employed an in vitro sphere initiation assay followed by limiting dilution analysis (LDA) using patient-derived CRC cells. […] In addition, we performed in vivo tumour initiation assays by injecting serially diluted patient-derived CRC cells into NSG immunodeficient mice and inspected tumour engraftment for up to 6 months after injection (FIG. 12F).

[2] = test system: interferon stimulated genes (ISG15, DDX58 and IRF7); assay: interferon response / ISG expression by RNA-seq GSEA and qRT-PCR in patient-derived CRC cells; type: cell-based, human
Text: H, Geneset Enrichment Analysis showing an enrichment of the geneset ‘Hallmark_Interferon_Alpha_Response’ in ADAR1^KD 5-AZA-treated cells compared to ADAR1^WT 5-AZA-CdR treated cells.
I, Interferon-responsive geneset enrichment score in mock-treated ADAR1^WT, 5-AZA-CdR-treated ADAR1^WT, mock-treated ADAR1^KD, and 5-AZA-CdR-treated ADAR1^KD conditions. Samples were collected 5, 14, and 24 days post-treatment.
B, Kinetics of interferon stimulated genes (ISG15, DDX58 and IRF7) relative expression in ADAR1^WT (Black) and ADAR1^KD (Gray) patient-derived colorectal cancer cells (CRCs) treated with 5-AZA-CdR analyzed by qRT-PCR. Data are mean±s.e.m. (n=3 from three independent experiments). *P<0.05, **P<0.01, ****P<0.0001, Sidak-corrected two-way ANOVA.
C, Interferon-responsive gene expression in ADAR1^WT mock-treated (MT), 5-AZA-CdR treated, ADAR1^KD NT and ADAR1^KD p(I:C) transfected samples collected 5 days, 14 days and 24 days post-treatment, measured by RNA-seq.
D, Kinetics of interferon stimulated genes (ISG15, DDX58 and IRF7) relative expression in ADAR1^WT (Black) and ADAR1^KD (Gray) patient-derived CRCs transfected with p(I:C), analyzed by qRT-PCR. Data are mean±s.e.m. **P<0.01, ****P<0.0001, Sidak-corrected two-way ANOVA.
F, Interferon stimulated genes (ISG15, DDX58 and IRF7) relative expression in CTRL (LUC) (Black) and ADAR1^p150CE (Gray) patient-derived CRCs treated with 5-AZA-CdR, analyzed by qRT-PCR. Data are mean±s.e.m. **P<0.01, ***P<0.001, Sidak-corrected two-way ANOVA.
G, IFN enrichment score in CTRL(LUC) Mock-treated, 5-AZA-CdR treated, ADAR1-p150 overexpressing NT and ADAR1-p150 overexpressing 5-AZA-CdR treated samples collected 5 days post-treatment and measured by RNA-seq.
Based on these findings, we hypothesized that ADAR1 depletion would synergize with the viral mimicry response induced by DNMTi treatment. To assess how ADAR1 depletion affects 5-AZA-CdR treated samples, we performed RNA-seq analyses in patient-derived CRC cells. […] As a molecular read-out of dsRNA pattern recognition activation, we measured MAVS aggregation in the mitochondrial fraction of cell lysates^34. […] Taken together, our findings establish that ADAR1 acts as a negative feedback loop, restricting the viral mimicry response induced by DNMTi treatment in cancer cells.

[3] = test system: patient-derived CRC cells; assay: in vivo LDA measuring tumour-initiation potential; set-up: species or system NSG mice
Method: F Schematic representation of in vivo LDA measuring tumour-initiation potential. NSG mice were injected with 10,000 cells (n=8 tumours), 1,000 cells (n=8 tumours), 100 cells (n=8 tumours) and 10 cells (n=16 tumours).
G, Tumour-initiating cell frequency from the in vivo LDA of patient-derived CRC cells for each condition. ADAR1WT 5-AZA-CdR vs ADAR1KDA 5-AZA-CdR P=0.00862; ADAR1WT 5-AZA-CdR vs ADAR1KDB 5-AZA-CdR P=0.009; chi-square test.
as §1

[4] = test system: H3K4me3 and H3K27ac upstream of treatment-induced IR-Alus; assay: genome-wide CUT&RUN of H3K4me3 and H3K27ac at treatment-induced IR-Alus; type: cell-based, human; conditions: DNMTi treatment
Text: D, Heatmaps and average CUT & RUN profiles of H3K4me3 (left) and H3K27ac (right) signal at −50 kb/+50 kb (Upstream/downstream) of the Treatment-induced IR-Alu pairs regions. The orientation was based on the transcriptional orientation in the MDA5-protected RNA-seq data
Active promoters and enhancers are often marked by H3K4me3 and H3K27ac, respectively. […] Importantly, we assessed the DNA methylation status of these specific regulatory regions that became H3K4me3 marked upstream of the induced IR-Alus following epigenetic therapy and found the majority of these regions to be frequently methylated before treatment. We observed that 91% of these regions were either partially or fully methylated in the panel of 51 CRC cell lines (FIG. 6C) and 94% in the panel of 988 pan-cancer cell lines (FIG. 6D). Moreover, we observed that the DNA methylation status of these regulatory regions upstream of induced IR-Alus were inversely correlated (r=−0.23, p=7.58-13) with the expression of a panel of Interferon-Stimulated Genes (n=22 ISGs) from our viral mimicry signature^1 across the 988 pan-cancer cell lines (FIG. 6E).

ADAR1 = assay: genome-wide A-to-I editing loci counts in Alus (RNA-seq); type: cell-based, human
Text: G, Genome-wide A-to-I editing loci counts in Alus in the RNA-seq data performed in the total cytoplasmic fraction (‘Total CytoRNA’) and in the MDA5-protected fraction (‘MDA5-protected’) at the mock-treated (MT) ADAR1^WT, 5-AZA-CdR-treated ADAR1^WT, mock-treated ADAR1^KD, and 5-AZA-CdR-treated ADAR1^KD conditions.
Next, we tested whether epigenetic therapy can induce and activate ADAR1 editing activity.

## Nc1ncn([C@H]2C[C@H](O)[C@@H](CO)O2)c(=O)n1 [5-AZA-CdR]
[1]
  spheroid forming potential: reduced the spheroid forming potential
[2]; ADAR1-depleted vs wild-type samples, both treated with 5-AZA-CdR
  type I interferon response (GSEA): the most enriched pathway
[2]; ADAR1-depleted vs wild-type, after initial treatment
  persistence of enhanced interferon/ISG response: persisted as long as twenty-four days after initial treatment
[2]; CRC cells overexpressing ADAR1p150
  viral mimicry (expression of ISGs and dsRNA formation): rescues the ability of 5-AZA-CdR to induce viral mimicry
[3]; ADAR1^KDA, 10 cells injected
  Number of Engrafted tumours/number of injected tumours: 0/16
[3]; ADAR1^KDA, 100 cells injected
  Number of Engrafted tumours/number of injected tumours: 0/8
[3]; ADAR1^KDA, 1,000 cells injected
  Number of Engrafted tumours/number of injected tumours: 3/8
[3]; ADAR1^KDA, 10,000 cells injected
  Number of Engrafted tumours/number of injected tumours: 5/8
[3]; ADAR1^KDA/B cells relative to wild-type, up to 6 months
  tumour engraftment potential: substantially reduced tumour engraftment potential
[3]; ADAR1^KDB, 10 cells injected
  Number of Engrafted tumours/number of injected tumours: 0/16
[3]; ADAR1^KDB, 100 cells injected
  Number of Engrafted tumours/number of injected tumours: 0/8
[3]; ADAR1^KDB, 1,000 cells injected
  Number of Engrafted tumours/number of injected tumours: 1/8
[3]; ADAR1^KDB, 10,000 cells injected
  Number of Engrafted tumours/number of injected tumours: 6/8
[3]; ADAR1^WT, 10 cells injected
  Number of Engrafted tumours/number of injected tumours: 0/16
[3]; ADAR1^WT, 100 cells injected
  Number of Engrafted tumours/number of injected tumours: 3/8
[3]; ADAR1^WT, 1,000 cells injected
  Number of Engrafted tumours/number of injected tumours: 5/8
[3]; ADAR1^WT, 10,000 cells injected
  Number of Engrafted tumours/number of injected tumours: 7/8
[4]
  H3K4me3 and H3K27ac levels directly upstream of treatment-induced immunogenic IR-Alus: elevated levels of H3K4me3, but not H3K27ac
ADAR1; ADAR1-depleted cells
  A-to-I editing of MDA5-protected Alus: depletion of ADAR1 abrogated this effect
ADAR1; ADAR1 WT cells
  A-to-I editing of MDA5-protected Alus: genome-wide increased A-to-I editing
